Tested on: E. coli BW25113
Type: cell-based, Escherichia coli
Details: n=3

## Polymyxin B
  Increase in Polymyxin B resistance: five
